Results as given in patent US9066865B2, “Pharmaceutical compositions for the treatment of inner ear disorders” (AURIS MEDICAL AG, priority 2005, dated 2015).

Assays:
[1] = in vitro release of Ketamine from hyaluronic acid gel into PBS (without membrane or Franz cell with filter/dialysis membrane); type: physicochemical
Method: A hyaluronic acid solution (Hylumed, Genzyme Corp.) was prepared at concentrations of 5 and 7.5% in phosphate buffered saline (PBS). At 8%, handling of the gel had shown to be difficult due to the high viscosity. S-(+)-Ketamine hydrochloride (Sigma-Aldrich) was dissolved at a concentration of 2% (weight/weight) equivalent to 73 mM. To evaluate the importance of the drug load factor, concentrations of 0.5% and 2.5% were also tested. Release of the pharmacologically active agent was measured in PBS, a common receiver fluid for controlled release studies, either without any membrane or by using a filter membrane or a dialysis membrane (Spectropore) in a Franz cell (PermeGear). The membranes were employed to mimic the rate limiting membrane of the round window. The temperature of the fluid was maintained constant at body temperature. The bottom chamber of the Franz cell was filled with 5 ml of PBS as the receiver fluid. The receiver fluid contained a stir bar for continuous agitation. The upper chamber was filled with approximately 50 mg of gel and the cell assembled. At various time points, aliquots (typically 1 ml) were withdrawn and analyzed by UV spectrophotometry (Agilent 8453). The absorbance at 215 nm was measured and the concentration calculated using an extinction coefficient of 30 ml/mg cm. As the volume of the aliquot was known, the total amount released could be determined. Each time an aliquot was withdrawn, the same volume of PBS was placed back into the Franz cell chamber.

[2] = pharmacokinetic study: Ketamine in perilymph after 2.8% hyaluronic acid gel on the round window membrane; type: in vivo; conditions: 1 mM, guinea pig
Method: In a second step, a pharmacokinetic study with pigmented guinea pigs was carried out in order to evaluate in vivo the diffusion of Ketamine from a hyaluronic acid gel formulation across the round window membrane into the inner ear. A total of 30 animals were tested for concentrations of the pharmaceutical compound in the perilymph at 1 hour, 3 hours, 8 hours, 24 hours and 72 hours following gel administration; 6 animals per time point were tested.
Animals were anaesthetized with a single-dose i.p. injection of 0.3 ml/kg of pentobarbital at 6% (Ceva sante animale), and the right ear bulla was opened using a posterior auricular surgical procedure (dorsal approach). 2 microliters of the hyaluronic gel formulation (2.8% Hylumed Sterile in artificial perilymph, molecular weight 2.44 million; Genzyme Corp.) with S-(+)-Ketamine (Sigma-Aldrich) at a concentration of 1 milliM were then deposited onto the round window membrane of the inner ear. At each of the aforementioned time points, one group of animals was decapitated under deep anaesthesia (pentobarbital 50 mg/kg). […] The samples were then analyzed by liquid chromatography mass spectrometry with a limit of quantification of 0.2 ng/ml (HPLC instrument: Perkin Elmer series 200; mass spectrometer detector: MSD Sciex API 4000 Applied Biosystems; column: Zorbax SB CN 50×2.1 mm 5 μm-Agilent technologies).

[3] = system: PCP binding site of the NMDA receptor; conditions: relative to (R)-ketamine; cited from earlier work

CN[C@@]1(c2ccccc2Cl)CCCCC1=O (stereo in doubt) [Ketamine, 2-(2-chlorophenyl)-2-(methylamino)-cyclohexanone]
release rate at 7.5% hyaluronic acid compared with 5% ([1]; 7.5% hyaluronic acid gel, rate limiting membrane): less quickly than at 5% | duration of release of Ketamine into PBS ([1]; Franz cell with dialysis membrane): about three days | duration of release of Ketamine into PBS ([1]; Franz cell with filter membrane): approximately 60 hours | release speed compared with Ketamine hydrochloride solution ([1]; gel with 0.5% Ketamine by weight, Franz cell with filter membrane): nearly as fast as a simple Ketamine hydrochloride solution | amount released in the first hour (initial burst) ([1]; gel with 2.5% Ketamine loading factor, Franz cell with filter membrane): about 20% | share of the total cumulative concentration in PBS achieved ([1]; hyaluronic acid gel, no rate limiting membrane, after one hour): ~50% | duration of release of Ketamine from hyaluronic acid gel ([1]; no membrane): over just a few hours | time to maximum concentration of Ketamine in perilymph ([2]; 2 microliters on round window membrane): within one hour | last quantifiable levels in perilymph ([2]; LOQ 0.2 ng/ml): after three days | higher affinity to the PCP binding site of the NMDA receptor than (R)-ketamine [3]: 3-4 fold
